Assay results: the supplement of paper PMC11451515

System: NOMO1
Assay: cell viability relative to DMSO control; higher = less cytotoxic
Details: 48 h
Summary of the method: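 Library compounds in DMSO were pin-dosed in an 11-point threefold series (47 μM to 0.79 nM) onto leukemia cells in 1536-well plates (5 μl). Plates held 500 cells/well of NOMO1 or SEM or 1000 cells/well of P12-Ichikawa, each adapted for at least four passages in each medium. Luminescence was read with CellTiter-Glo One after 48 h at 37°C. Viability means the per-plate percentage relative to DMSO wells, using cell-free wells as background.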

[1] = HPLM + 10% dialyzed FBS, 0.000781 µM
[2] = HPLM + 10% dialyzed FBS, 0.00234 µM
[3] = HPLM + 10% dialyzed FBS, 0.00702 µM
[4] = HPLM + 10% dialyzed FBS, 0.0211 µM
[5] = HPLM + 10% dialyzed FBS, 0.0632 µM
[6] = HPLM + 10% dialyzed FBS, 0.19 µM
[7] = HPLM + 10% dialyzed FBS, 0.569 µM
[8] = HPLM + 10% dialyzed FBS, 1.71 µM
[9] = HPLM + 10% dialyzed FBS, 5.12 µM
[10] = HPLM + 10% dialyzed FBS, 15.4 µM
[11] = HPLM + 10% dialyzed FBS, 46.1 µM
[12] = RPMI 5 mM glucose + 10% FBS, 0.000781 µM
[13] = RPMI 5 mM glucose + 10% FBS, 0.00234 µM
[14] = RPMI 5 mM glucose + 10% FBS, 0.00702 µM
[15] = RPMI 5 mM glucose + 10% FBS, 0.0211 µM
[16] = RPMI 5 mM glucose + 10% FBS, 0.0632 µM
[17] = RPMI 5 mM glucose + 10% FBS, 0.19 µM
[18] = RPMI 5 mM glucose + 10% FBS, 0.569 µM
[19] = RPMI 5 mM glucose + 10% FBS, 1.71 µM
[20] = RPMI 5 mM glucose + 10% FBS, 5.12 µM
[21] = RPMI 5 mM glucose + 10% FBS, 15.4 µM
[22] = RPMI 5 mM glucose + 10% FBS, 46.1 µM
[23] = RPMI 5 mM glucose + 10% dialyzed FBS, 0.000781 µM
[24] = RPMI 5 mM glucose + 10% dialyzed FBS, 0.00234 µM
[25] = RPMI 5 mM glucose + 10% dialyzed FBS, 0.00702 µM
[26] = RPMI 5 mM glucose + 10% dialyzed FBS, 0.0211 µM
[27] = RPMI 5 mM glucose + 10% dialyzed FBS, 0.0632 µM
[28] = RPMI 5 mM glucose + 10% dialyzed FBS, 0.19 µM
[29] = RPMI 5 mM glucose + 10% dialyzed FBS, 0.569 µM
[30] = RPMI 5 mM glucose + 10% dialyzed FBS, 1.71 µM
[31] = RPMI 5 mM glucose + 10% dialyzed FBS, 5.12 µM
[32] = RPMI 5 mM glucose + 10% dialyzed FBS, 15.4 µM
[33] = RPMI 5 mM glucose + 10% dialyzed FBS, 46.1 µM

SMILES	cell viability [1] [%]	cell viability [2] [%]	cell viability [3] [%]	cell viability [4] [%]	cell viability [5] [%]	cell viability [6] [%]	cell viability [7] [%]	cell viability [8] [%]	cell viability [9] [%]	cell viability [10] [%]	cell viability [11] [%]	cell viability [12] [%]	cell viability [13] [%]	cell viability [14] [%]	cell viability [15] [%]	cell viability [16] [%]	cell viability [17] [%]	cell viability [18] [%]	cell viability [19] [%]	cell viability [20] [%]	cell viability [21] [%]	cell viability [22] [%]	cell viability [23] [%]	cell viability [24] [%]	cell viability [25] [%]	cell viability [26] [%]	cell viability [27] [%]	cell viability [28] [%]	cell viability [29] [%]	cell viability [30] [%]	cell viability [31] [%]	cell viability [32] [%]	cell viability [33] [%]
COc1cc(C(=O)NC2CCN(C)CC2)ccc1Nc1ncc2c(n1)N(C1CCCC1)CCC(=O)N2C(C)C	103	121	110	122	118	112	115	113	115	58.3	9.06	99.3	105	101	108	102	118	102	107	119	75.7	15.2	92.7	113	100	110	100	106	104	117	109	105	20.6
O=C(O)CCCCCC(=O)NN=C1CCCC1	99.6	96	116	122	107	120	126	132	122	130	133	105	111	111	112	102	100	112	103	116	123	129	91.2	92.8	97.9	110	105	115	96.6	109	118	121	103
CN(C)CCCC1(c2ccc(F)cc2)OCc2cc(C#N)ccc21 (configuration not stated)	107	103	111	90.7	100	94	91.8	106	68.4	88.8	74	88.5	101	102	88.9	98.5	89.5	91.4	106	57.9	79.9	84.4	87.5	90	96.4	85	90.4	84.5	77.4	82.2	55.3	81	72.6
C=CC(=O)Nc1cc2c(Nc3ccc(F)c(Cl)c3)ncnc2cc1C#CC(C)(C)N1CCN(C)CC1	112	109	112	89.9	92	108	117	89.2	55.3	6.12	6.26	95.3	93	91.7	95.4	101	93.5	101	95	94.6	7.56	12.7	99.2	101	107	95.3	86.6	103	101	106	52.7	8.43	5.07
COc1cc2c(cc1OC)[C@@H]1Cc3ccc(OC)c(OC)c3CN1CC2	120	129	115	105	118	110	112	117	114	99.4	31.2	98.1	101	94.8	97.1	106	104	97.6	101	102	92.7	34.3	112	114	116	107	96.5	109	95.6	97.8	106	103	56
CC(C)c1onc(-c2c(Cl)cccc2Cl)c1COc1ccc(/C=C/c2cccc(C(=O)O)c2)c(Cl)c1																							128	124	124	139	114	133	129	132	128	109	107
Cc1ccc(Nc2cc(-c3cccc(N4C(=O)c5ccccc5C4=O)c3)ncn2)cc1N[S+](C)(=O)[O-]	107	113	156	123	127	149	128	140	153	132	107																						
Cc1c(N)nc([C@H](CC(N)=O)NC[C@@H](N)C(N)=O)nc1C(=O)N[C@H](C(=O)N[C@@H](C)[C@H](O)[C@@H](C)C(=O)N[C@@H](C(=O)NCCc1nc(-c2nc(C(=O)NCCC[S+](C)C)cs2)cs1)[C@@H](C)O)C(O[C@H]1O[C@H](CO)[C@H](O)[C@@H](O)[C@H]1O[C@H]1O[C@H](CO)[C@@H](O)[C@H](OC(N)=O)[C@@H]1O)c1c[nH]cn1 (some centres not stated)	117	112	128	125	121	128	108	74	40.4	57.9	85.9	101	100	95	98.6	110	115	114	71.9	41.1	72.2	79.6	119	117	114	132	113	124	138	127	66	85	86.7
COc1cc(NCc2ccc3nc(N)nc(N)c3c2C)cc(OC)c1OC	90.2	91.7	98.9	95.1	93.5	98.4	89.5	44.4	36	34.2	15.9	79.3	88	80.9	85.7	84.7	89.3	93.5	83.2	99.6	86.9	9.99	87.2	88.5	86.2	91.1	91	107	94.5	81.1	68.8	37.9	16.6
CC(=O)OC[C@@H]1O[C@H]([C@H](OC(C)=O)[C@@H]1OC(C)=O)N2\C=C/C(=O)NC2=O												107	117	115	117	125	121	102	111	105	82.9	22.6											
CN(C)C/C=C/C(=O)Nc1ccc(C(=O)Nc2cccc(Nc3ncc(Cl)c(-c4c[nH]c5ccccc45)n3)c2)cc1	78.8	99.4	101	94.6	88.4	85.2	5.25	4.49	4.42	3.89	3.78	81.9	91.4	84.4	93.8	93.5	98.7	5.96	4.95	4.62	3.68	3.47	80	87.7	91.2	94.7	95	73.9	3.8	3.8	3.2	2.9	3.15
O=C(c1cncc(Br)c1)N1CCC(N2CCCC2)CC1	97.9	122	124	110	103	105	97.1	105	103	92.2	85.3	93.5	95.9	110	90.6	91.4	96.5	102	93.1	94.6	85.4	84.4	112	105	106	106	105	103	100	100	98.7	98.7	95.9
Cc1ccc(C(=O)Nc2cccc(C(F)(F)F)c2)cc1Nc1nc(-c2cccnc2)nc2c1cnn2C	87.4	80.6	97.4	97.6	88.4	104	74	56.5	71.2	67.8	78	83.5	84.8	94.5	77.4	85.1	87.4	77.6	84.9	87.7	73.4	76.4	84.8	86.2	87.6	87.2	90.7	89.1	83.7	77.4	93.8	77.6	85.3
CCC(C)CCCCC(=O)N[C@@H](CCN)C(=O)NC(C(=O)N[C@H](CCN)C(=O)N[C@@H]1CCNC(=O)C([C@@H](C)O)NC(=O)[C@@H](CCN)NC(=O)[C@@H](CCN)NC(=O)[C@@H](CC(C)C)NC(=O)[C@H](Cc2ccccc2)NC(=O)[C@H](CCN)NC1=O)[C@@H](C)O (some centres not stated)	118	110	113	112	123	133	137	119	124	127	125	102	125	109	108	112	120	118	130	130	126	115	113	121	134	130	131	131	137	134	124	135	123
O=C(O)c1ccc(O)c2ncc(N3CCOCC3)cc12	90.9	108	99.9	103	99.3	101	109	105	97.2	83.6	18.9	93.9	91.1	92.7	92.1	89.4	86.3	87.5	86.2	85.4	79.3	73.8	98.1	101	111	104	107	94.2	126	102	91.2	104	81.5
Nc1n[nH]c2nnc(-c3c(-c4ccccc4)nn4ccccc34)cc12	103	139	118	131	134	137	137	86.3	40.5	37.4	37.3	116	114	144	124	138	123	133	59	24	26.9	20.8	116	123	134	129	136	129	138	119	29.1	28	21.4
